Experimental data taken from PubChem BioAssay AID504703 (Southern Research Specialized Biocontainment Screening …, 2011).
“And” between values parts separate entries of the source, which are not always exact repeats. Identical values can stand only once. The source made the active and inactive calls. How the calls were made is not given here.

System: M. tuberculosis H37Rv growth inhibition with meropenem
Assay: H37Rv growth inhibition with and without meropenem, dose response, set 2 (AID 504703);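 further: growth ran 7 days at 37 °C then overnight with Alamar Blue before reading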
[1] = M. tuberculosis H37Rv growth inhibition, measured here: IC50 without meropenem
[2] = M. tuberculosis H37Rv growth inhibition, measured here: IC90 without meropenem
[3] = measured here: IC90 with meropenem

SMILES: COc1ccc2nc(NC(=O)COc3ccc(Cl)cc3)sc2c1
- IC50 [1]: > 25 µM
- IC90 [2]: > 25 µM

SMILES: CC(=O)Nc1ccc2nc(NC(=O)COc3ccccc3)sc2c1
- IC50 [1]: > 25 µM
- IC90 [2]: > 25 µM

SMILES: CCOc1ccc2nc(NC(=O)c3cnccn3)sc2c1
- IC50 [1]: > 25 µM
- IC90 [2]: > 25 µM

SMILES: OCCCc1cn(-c2ccccc2)c2ccccc12
- IC50: 14.2 µM (inactive)
- IC50 [1]: > 25 µM
- IC90 [2]: > 25 µM
- IC90 [3]: > 25 µM

SMILES: O=C(COc1cccc2ccccc12)Nc1nc2ccccc2s1
- IC50 [1]: > 25 µM
- IC90 [2]: > 25 µM

SMILES: Cc1ccc(OCC(=O)Nc2ccc(Cl)cc2)c(C)c1
- IC50 [1]: > 25 µM
- IC90 [2]: > 25 µM

SMILES: O=C(Nc1nc2ccccc2[nH]1)c1ccc(Cl)c(Cl)c1
- IC50: 0.81 µM (inactive)
- IC50 [1]: 1.9 µM
- IC90 [2]: > 25 µM
- IC90 [3]: > 25 µM

SMILES: Cc1ccc2sc(NC(=O)COc3ccccc3)nc2c1C
- IC50 [1]: 23.7 µM
- IC90 [2]: > 25 µM

SMILES: CCOc1ccc2[nH]c(C)cc2c1
- IC50 [1]: > 25 µM
- IC90 [2]: > 25 µM

SMILES: CCOc1ccc2c(ccn2-c2ccccc2)c1
- IC50 [1]: > 25 µM
- IC90 [2]: > 25 µM

SMILES: CCCN1CC(O)=C(c2nc3ccccc3s2)C1=N
- IC50 [1]: > 25 µM
- IC90 [2]: > 25 µM

SMILES: Cc1cccnc1NC(=S)NC(=O)c1cncc(Br)c1
- IC50: 2.71 µM (inactive)
- IC50 [1]: 4.21 µM
- IC90 [2]: > 25 µM
- IC90 [3]: > 25 µM

SMILES: CCOc1ccc2c(c1)c(C(C)=O)c(C)n2Cc1ccco1
- IC50 [1]: > 25 µM
- IC90 [2]: > 25 µM

SMILES: O=C(COc1ccc2ccccc2c1)Nc1nc2ccccc2[nH]1
- IC50: > 18.8 µM (inactive) and 8.87 µM (inactive)
- IC50 [1]: > 18.8 µM and 15.5 µM
- IC90 [2]: > 25 µM
- IC90 [3]: > 25 µM

SMILES: Cc1ccccc1OCC(=O)Nc1ncccn1
- IC50 [1]: > 25 µM
- IC90 [2]: > 25 µM

SMILES: Cc1ccc(OC(C)C(=O)Nc2ncccn2)c(C)c1 (configuration not stated)
- IC50 [1]: > 25 µM
- IC90 [2]: > 25 µM

SMILES: N/C(=N\c1nc2cc(Cl)ccc2o1)NC(=O)c1ccccc1
- IC50 [1]: > 25 µM
- IC90 [2]: > 25 µM

SMILES: CCCOc1ccc2c(c1)c(C(C)=O)c(C)n2-c1ccccc1
- IC50 [1]: > 25 µM
- IC90 [2]: > 25 µM

SMILES: COc1ccc2nc(NC(=O)COc3ccccc3C(C)C)sc2c1
- IC50 [1]: > 25 µM
- IC90 [2]: > 25 µM

SMILES: CCOc1ccc2c(c1)c(C(C)=O)c(C)n2-c1ccccc1
- IC50 [1]: > 25 µM
- IC90 [2]: > 25 µM
- IC90 [3]: > 18.8 µM and 2.79 µM

SMILES: O=C(O)CCC(=O)Nc1nc2ccccc2s1
- IC50 [1]: > 25 µM
- IC90 [2]: > 25 µM

SMILES: Cc1cc(C)c(OCC(=O)Nc2nc3ccccc3[nH]2)c(C)c1
- IC50: 5.55 µM (inactive)
- IC50 [1]: > 18.8 µM and 7.46 µM
- IC90 [2]: > 25 µM
- IC90 [3]: > 25 µM

SMILES: CC(=O)c1c(C)n(-c2ccc(C)cc2)c2ccc(O)cc12
- IC50 [1]: > 25 µM
- IC90 [2]: > 25 µM

SMILES: COc1ccc2nc(NC(=O)c3oc4ccccc4c3C)sc2c1
- IC50 [1]: > 25 µM
- IC90 [2]: > 25 µM

SMILES: Oc1ccc2[nH]ccc2c1
- IC50 [1]: > 25 µM
- IC90 [2]: > 25 µM

SMILES: COc1ccc(Cl)cc1C(=O)Nc1nc2ccccc2[nH]1
- IC50: 16.2 µM (inactive)
- IC50 [1]: > 25 µM
- IC90 [2]: > 25 µM
- IC90 [3]: > 25 µM

SMILES: CCc1ccc2nc(/N=C(\N)NC(=O)c3ccccc3)nc(C)c2c1
- IC50: 0.82 µM (inactive)
- IC50 [1]: 1.86 µM
- IC90 [2]: > 12.5 µM
- IC90 [3]: > 25 µM

SMILES: c1ccc(Nc2ncnc3c2oc2ccccc23)cc1
- IC50: > 18.8 µM (inactive) and 5.29 µM (inactive)
- IC50 [1]: > 18.8 µM and 11.5 µM
- IC90 [2]: > 18.8 µM
- IC90 [3]: > 25 µM

SMILES: Cc1cc(C)c(OCC(=O)Nc2nc3ccc(C)cc3s2)c(C)c1
- IC50 [1]: > 25 µM
- IC90 [2]: > 25 µM

SMILES: O=C(CCS(=O)(=O)c1ccc(F)cc1)Nc1nnc(-c2cccs2)o1
- IC50: > 18.8 µM (inactive) and 22.4 µM (inactive)
- IC50 [1]: > 25 µM
- IC90 [2]: > 25 µM
- IC90 [3]: > 25 µM

SMILES: CC(=O)c1c(C)n(-c2ccccc2)c2ccc(OS(=O)(=O)C(F)(F)F)cc12
- IC50: > 25 µM (inactive)
- IC50 [1]: > 25 µM
- IC90 [2]: > 25 µM
- IC90 [3]: > 25 µM

SMILES: Cc1ccc(OCC(=O)Nc2cccc3c(NC(=O)COc4ccc(C)cc4C)cccc23)c(C)c1
- IC50 [1]: > 25 µM
- IC90 [2]: > 25 µM

SMILES: CC(=O)c1c(C)n(-c2ccccc2)c2ccc(O)cc12
- IC50: 20.1 µM (inactive)
- IC50 [1]: > 25 µM
- IC90 [2]: > 25 µM
- IC90 [3]: > 25 µM

SMILES: O=C(Nc1nc2ccccc2[nH]1)c1cc2cc(Br)ccc2o1
- IC50 [1]: > 25 µM
- IC90 [2]: > 25 µM

SMILES: Cc1cc2ccccc2n1-c1ccccc1
- IC50 [1]: > 25 µM
- IC90 [2]: > 25 µM

SMILES: Cc1ccccc1OCC(=O)Nc1ccccc1-c1ccccc1
- IC50: 14.6 µM (inactive)
- IC50 [1]: > 25 µM
- IC90 [2]: > 25 µM
- IC90 [3]: > 25 µM

SMILES: COC(=O)c1c(C)[nH]c2ccccc12
- IC50 [1]: > 25 µM
- IC90 [2]: > 25 µM

SMILES: COc1ccc2nc(NC(=O)C(C)Oc3ccccc3)sc2c1 (configuration not stated)
- IC50 [1]: > 25 µM
- IC90 [2]: > 25 µM

SMILES: Cc1ccccc1OCC(=O)Nc1ncn[nH]1
- IC50 [1]: > 25 µM
- IC90 [2]: > 25 µM

SMILES: COc1ccc2nc(NC(=O)COc3ccc(C)cc3)sc2c1
- IC50 [1]: > 25 µM
- IC90 [2]: > 25 µM

SMILES: Cc1ccccc1OCC(=O)Nc1noc(-c2ccccc2)n1
- IC50 [1]: > 25 µM
- IC90 [2]: > 25 µM

SMILES: CCOc1ccc2c(c1)c(CC)c(C)n2-c1ccccc1
- IC50 [1]: > 25 µM
- IC90 [2]: > 25 µM
- IC90 [3]: > 25 µM

SMILES: CCOc1ccc2c(c1)c(C(C)=O)c(C)n2-c1cccc(Cl)c1
- IC50: 10.5 µM (inactive)
- IC50 [1]: > 25 µM
- IC90 [2]: > 25 µM
- IC90 [3]: > 25 µM

SMILES: O=C(COc1ccccc1Cl)Nc1nc2ccccc2s1
- IC50 [1]: > 25 µM
- IC90 [2]: > 25 µM

SMILES: CC(C)(C)c1ccc(OCC(=O)Nc2nc3ccccc3s2)cc1
- IC50 [1]: > 25 µM
- IC90 [2]: > 25 µM

SMILES: Cc1cc2cc(O)ccc2[nH]1
- IC50 [1]: > 25 µM
- IC90 [2]: > 25 µM

SMILES: O=C(COc1ccc2c3c(c(=O)oc2c1)CCC3)Nc1nc2ccccc2[nH]1
- IC50 [1]: > 25 µM
- IC90 [2]: > 25 µM

SMILES: COc1cccc(NC(=S)Nc2cc(C)cc(C)n2)c1
- IC50: 7.2 µM (inactive)
- IC50 [1]: 14.4 µM
- IC90 [2]: > 25 µM
- IC90 [3]: > 25 µM

SMILES: Cc1cc2cc(F)ccc2n1-c1ccccc1
- IC50 [1]: > 25 µM
- IC90 [2]: > 25 µM

SMILES: CCOC(=O)c1cnc2cc(-c3ccc(C(C)(C)C)cc3)nn2c1N
- IC50: 1.99 µM (inactive)
- IC50 [1]: 1.15 µM and 4.11 µM
- IC90 [2]: > 25 µM
- IC90 [3]: > 25 µM

SMILES: COc1ccc2[nH]c(C)cc2c1
- IC50 [1]: > 25 µM
- IC90 [2]: > 25 µM

SMILES: CCC(=O)N/C(N)=N/c1nc2ccccc2o1
- IC50 [1]: > 25 µM
- IC90 [2]: > 25 µM

SMILES: CCOc1ccc(NC(=O)COc2ccc(C)cc2C)cc1
- IC50 [1]: > 25 µM
- IC90 [2]: > 25 µM

SMILES: CCOc1ccc2nc(NC(=O)C(C)Oc3ccccc3F)sc2c1 (configuration not stated)
- IC50 [1]: > 25 µM
- IC90 [2]: > 25 µM

SMILES: CCOc1ccc2nc(NC(=O)COc3ccc(Cl)c(C)c3)sc2c1
- IC50 [1]: > 25 µM
- IC90 [2]: > 25 µM

SMILES: Cc1ccc2oc(/N=C(\N)NC(=O)c3ccccc3)nc2c1
- IC50 [1]: > 25 µM
- IC90 [2]: > 25 µM

SMILES: COC(=O)c1c(C)[nH]c2ccc(F)cc12
- IC50 [1]: > 25 µM
- IC90 [2]: > 25 µM

SMILES: COc1ccc2nc(NC(=O)COc3ccccc3)sc2c1
- IC50 [1]: > 25 µM
- IC90 [2]: > 25 µM

SMILES: COc1cccc(-c2ccc(-c3noc(-c4ccccc4F)n3)c(OC)n2)c1
- IC50: > 25 µM (inactive)
- IC50 [1]: > 25 µM
- IC90 [2]: > 25 µM
- IC90 [3]: > 25 µM

SMILES: Cc1ccccc1OCC(=O)Nc1ccccc1N1CCCCC1
- IC50 [1]: > 25 µM
- IC90 [2]: > 25 µM
- IC90 [3]: > 25 µM

SMILES: O=C(CC12CC3CC(CC(C3)C1)C2)NCc1ccc(F)cc1
- IC50 [1]: > 25 µM
- IC90 [2]: > 25 µM
